Test results published in patent publication US9326512B2, “Synergistic combination of a flurochloridone compound and zinc pyrithione for dry film protection” (Rohm and Haas Company, priority 2013, dated 2016).

Tested on: Chlorella sp. ATCC 7516
Assay: Algal efficacy testing of dry paint films (modified ASTM 5589, 6-well plates)
Type: cell-based
Conditions: 3 weeks; for Total conc (lowest total biocide concentration in paint passing ≧75% inhibition): pass level ≧75% algal growth inhibition, dry paint film coupon
Protocol: These paints were then diluted with an antimicrobial free acrylic/silicone based paint and mixed to prepare targeted concentrations of antimicrobial compounds for the testing. The total biocides concentrations tested were 125, 250, 500, 1000, 2000 and 5000 ppm. After biocides addition or dilution, the paints were mixed 90 seconds with the horse power shaker (AXEL 75M3372/Agitateur SO-10MI) until uniformity was achieved. Paints containing different antimicrobial compounds at the same levels were mixed together in order to obtain the desired ratio of antimicrobial compounds. After one day, the paints were applied to Schleicher & Schuell filter paper at 280 μm wft and dried for 3 days at room temperature avoiding direct exposure to sunlight. Square discs (1.6 cm×1.6 cm) were cut out from each panel and were used as the substrate for algal efficacy tests. This sample size allowed for an agar border when the sample disc was placed into the well of the test plate.
Algal efficacy was tested according to modified ASTM 5589 which is a standard accelerated test method for determining resistance of various coatings (including paints) to algal defacement. To accommodate for high-throughput screening, this method was scaled down from petri dishes to 6-well plates. Bold Modified Basal Freshwater Nutrient Solution was used as growth medium. A single coated filter paper coupon was placed with a pair of sterile forceps at the center of the agar plug (on top) with the painted surface facing upwards.
Each well that contains a tested coupon was inoculated with 1750 μl of algal suspensions (1×10^6 cfu/ml) making sure that the whole surface (paint film as well as the agar surrounding it) was evenly covered. The plates were incubated at room temp (21° C.-25° C.) with cyclic exposure to light and dark phases, for a period of three weeks.
At the end of the three week incubation period, the samples were scored for percent inhibition regarding color intensity compared to the blank sample.
The Synergy Index calculation was performed as follows.
The SI is calculated based on F. C.
SI value of <1 in the formula indicates a synergism of the blended biocides exists.
The minimal targeted inhibition was set at 75%, meaning a coupon with at least 75% algal growth inhibition was considered as a pass.

[O-][n+]1ccccc1[S][Zn][S]c1cccc[n+]1[O-] [ZnPT, bis(2-pyridylthio)zinc 1,1′-dioxide]
Total conc (lowest total biocide concentration in paint passing ≧75% inhibition): 500 ppm
% inhibition (total conc 500 ppm in paint): 95%

O=C1C(Cl)C(CCl)CN1c1cccc(C(F)(F)F)c1 (stereo not shown) [Flurochloridone, 3-chloro-4-(chloromethyl)-1-[3-(trifluoromethyl)phenyl]-2-pyrrolidinone]
Total conc (lowest total biocide concentration in paint passing ≧75% inhibition): 5000 ppm
inhibition at 5000 ppm (504 h, total conc 5000 ppm in paint): 85%
